From patent US20250034182A1, “PHOSPHOLIPID COMPOUNDS AND METHODS OF MAKING AND USING THE SAME” (priority 2021, published 2025)

Legend:
Format in all cases: cell-based
[1] = system: Respiratory syncytial virus recombinant with luciferase (RSV-Luc5) in HEp-2 cells; experiment: HEp-2 RSV-Luc5 384-well assay (EC50 RSVFLUC Hep2-384 v2, Example V); conditions: human respiratory syncytial virus, HEp-2, 72 h, read-out: RSV Hep-2 FLuc EC50 (v2) (nM) (per Ex. V)
In short: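 HEp-2 cells (4,000/well) infected with RSV-Luc5 at MOI 0.5 in DMEM/10% FBS with compound, 10-point 1:3 dilutions, 3 days at 37 °C. Replication read by One-Glo luminescence, normalized to remdesivir (0%) and DMSO (100%). EC50 from non-linear regression as concentration giving 50% reduction.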

[2] = system: Human Rhinovirus 16 (HRV16) in H1-HeLa cells; experiment: H1-HeLa HRV-CTG EC50, HRV16 (Example Z); conditions: Rhinovirus A, HRV16, 96 h, MOI 0.25, 4 days, Celltiter-Glo, read-out: HRV 16 HELA EC50 (nM) (per Ex. Z)
In short: (§1)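 H1-HeLa cells (5,000/well) in DMEM with 2% FBS were infected with HRV1B, HRV14 or HRV16 at MOI 0.5, 1.0 and 0.25, respectively, with 10-point 1:3 compound dilutions. After 4 days at 37 °C, viability was read by CellTiter-Glo luminescence. EC50 was the concentration reducing viral replication by 50%, normalized to rupintrivir and DMSO controls.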

[3] = system: Human Rhinovirus 14 (HRV14) in H1-HeLa cells; experiment: H1-HeLa HRV-CTG EC50, HRV14 (Example Z); conditions: Rhinovirus B, HRV14, 96 h, MOI 1.0, 4 days, Celltiter-Glo, read-out: HRV14 HELA EC50 (nM) (per Ex. Z)
In short: as §1

[4] = system: Human Rhinovirus 1B (HRV1B) in H1-HeLa cells; experiment: H1-HeLa HRV-CTG EC50, HRV1B (Example Z); conditions: Rhinovirus A, 96 h, MOI 0.5, 4 days, Celltiter-Glo, read-out: HRV 1B HELA EC50 (nM) (per Ex. Z)
In short: as §1

[5] = RSV NHBE CC50 384 V2 (per Ex. U); conditions: human

| SMILES | EC50 [1] [nM] | EC50 [2] [nM] | EC50 [3] [nM] | EC50 [4] [nM] | CC50 at 3 days [5] [nM] |
| --- | --- | --- | --- | --- | --- |
| CCCCCCCCCCCCCCCC[C@@H](COP(=O)(O)OC[C@@]1(C#N)O[C@@H](c2ccc3c(N)ncnn23)[C@H](O)[C@@H]1O)OCc1cc(F)cc(C#N)c1 [Compound 79, ((2R,3S,4R,5S)-5-(4-aminopyrrolo[2,1-f][1,2,4]triazin-7-yl)-2-cyano-3,4-dihydroxytetrahydrofuran-2-yl)methyl ((S)-2-((3-cyano-5-fluorobenzyl)oxy)octadecyl) hydrogen phosphate] | 1090 | 70 | 38 | 25 | 2100 |
| CCCCCCCCCCCCCCCCCCOC[C@H](COP(=O)(O)OC[C@@]1(C#N)O[C@@H](c2ccc3c(N)ncnn23)[C@H](O)[C@@H]1O)OCc1ccc(C#N)c(-n2cncn2)c1 [Compound 16, ((2R,3S,4R,5S)-5-(4-aminopyrrolo[2,1-f][1,2,4]triazin-7-yl)-2-cyano-3,4-dihydroxytetrahydrofuran-2-yl)methyl ((R)-2-((4-cyano-3-(1H-1,2,4-triazol-1-yl)benzyl)oxy)-3-(octadecyloxy)propyl) hydrogen phosphate] | 36 | 10 | 11 | 5 | 4610 |
| CCCCCCCCCCCCCCCCCCC[C@H](COP(=O)(O)OC[C@@]1(C#N)O[C@@H](c2ccc3c(N)ncnn23)[C@H](O)[C@@H]1O)Oc1cc(OC)c(C#N)c(OC)c1 [Compound 39, ((2R,3S,4R,5S)-5-(4-aminopyrrolo[2,1-f][1,2,4]triazin-7-yl)-2-cyano-3,4-dihydroxytetrahydrofuran-2-yl)methyl ((R)-2-(4-cyano-3,5-dimethoxyphenoxy)henicosyl) hydrogen phosphate] | 327 | 35 | 34 | 18 | 6460 |
| CCCCCCCCCCCCCCCCCCOC[C@H](COP(=O)(O)OC[C@@]1(C#N)O[C@@H](c2ccc3c(N)ncnn23)[C@H](O)[C@@H]1O)OCc1cccc(C#N)n1 [Compound 68, ((2R,3S,4R)-5-(4-aminopyrrolo[2,1-f][1,2,4]triazin-7-yl)-2-cyano-3,4-dihydroxytetrahydrofuran-2-yl)methyl ((R)-2-((6-cyanopyridin-2-yl)methoxy)-3-(octadecyloxy)propyl) hydrogen phosphate] | 110 | 20 | 35 | 12 | 2060 |
| CCCCCCCCCCCCCCCCCCOC[C@@H](COP(=O)(O)OC[C@@]1(C#N)O[C@@H](c2ccc3c(N)ncnn23)[C@H](O)[C@@H]1O)Oc1ccc(C#N)nc1 [Compound 72, ((2R,3S,4R,5S)-5-(4-aminopyrrolo[2,1-f][1,2,4]triazin-7-yl)-2-cyano-3,4-dihydroxytetrahydrofuran-2-yl)methyl ((S)-2-((6-cyanopyridin-3-yl)oxy)-3-(octadecyloxy)propyl) hydrogen phosphate] | 45 | 3 | 3 | 3 | 1610 |
| CCCCCCCCCCCCCCCCCCOCC(COc1cc(F)cc(C#N)c1)COP(=O)(O)OC[C@@]1(C#N)O[C@@H](c2ccc3c(N)ncnn23)[C@H](O)[C@@H]1O (stereo partly drawn) [Compound 43, ((2R,3S,4R,5S)-5-(4-aminopyrrolo[2,1-f][1,2,4]triazin-7-yl)-2-cyano-3,4-dihydroxytetrahydrofuran-2-yl)methyl (3-(3-cyano-5-fluorophenoxy)-2-((octadecyloxy)methyl)propyl) hydrogen phosphate] | 707 | 53 | 75 | 36 | 11900 |
| CCCCCCCCCCCCCCOC[C@H](COP(=O)(O)OC[C@@]1(C#N)O[C@@H](c2ccc3c(N)ncnn23)[C@H](O)[C@@H]1O)Oc1cc(C#N)ccn1 [Compound 69, ((2R,3S,4R)-5-(4-aminopyrrolo[2,1-f][1,2,4]triazin-7-yl)-2-cyano-3,4-dihydroxytetrahydrofuran-2-yl)methyl ((R)-2-((4-cyanopyridin-2-yl)oxy)-3-(tetradecyloxy)propyl) hydrogen phosphate] | 674 | 109 | 106 | 116 | 3290 |
